Test results: patent US10144730B2, “Inhibitors of c-Jun-N-terminal kinase (JNK)” (Dana-Farber Cancer Institute, Inc., priority 2011, dated 2018)

Tests used:
[1] = system: c-Jun phosphorylation; test: High throughput microscopy of c-Jun phosphorylation in A375 cells; format: cell-based; settings: Homo sapiens, A-375; for IC50: rounded values of the text, read-out: IC50 for inhibiting c-Jun phosphorylation in A375 cells
Method: Cells were fixed in 2% paraformaldehyde for 10 min at room temperature and washed with PBS-T (Phosphate Buffered Saline, 0.1% Tween 20). Cells were permeabilized in methanol for 10 min at room temperature, washed with PBS-T, and blocked in Odyssey Blocking Buffer (LI-COR Biosciences) for 1 hour at room temperature. Cells were incubated overnight at 4° C. with antibody specific for Erk1/2(pT202/pY204), Akt(pS473), c-Jun(pS73), pP38(T180/Y182) and pSTAT3(Y705) (Cell Signaling Technology), pRSK1(S380) and pMSK1(S376) (Epitomics), and NF-κB (Santa Cruz Biotechnology) diluted 1:400 in Odyssey Blocking Buffer. […] Cells were washed twice with PBS and imaged in an imageWoRx high-throughput microscope (Applied Precision). Data were plotted using DataPflex.
(§1) In parallel with biochemical evaluation, the ability of the compounds to inhibit JNK activity in cells was investigated using two independent assays formats. This is a critical issue because there are several reported JNK inhibitors with nanomolar biochemical potency that translate into micromolar cellular inhibitors. The most well characterized direct phosphorylation substrate of JNK is the transcription factor c-Jun.

[2] = target: JNK3 (Homo sapiens, UniProt P53779); test: Biochemical JNK3 kinase inhibition (Z'-lyte format); settings: Table 2
Sequence of JNK3 (P53779 whole entry): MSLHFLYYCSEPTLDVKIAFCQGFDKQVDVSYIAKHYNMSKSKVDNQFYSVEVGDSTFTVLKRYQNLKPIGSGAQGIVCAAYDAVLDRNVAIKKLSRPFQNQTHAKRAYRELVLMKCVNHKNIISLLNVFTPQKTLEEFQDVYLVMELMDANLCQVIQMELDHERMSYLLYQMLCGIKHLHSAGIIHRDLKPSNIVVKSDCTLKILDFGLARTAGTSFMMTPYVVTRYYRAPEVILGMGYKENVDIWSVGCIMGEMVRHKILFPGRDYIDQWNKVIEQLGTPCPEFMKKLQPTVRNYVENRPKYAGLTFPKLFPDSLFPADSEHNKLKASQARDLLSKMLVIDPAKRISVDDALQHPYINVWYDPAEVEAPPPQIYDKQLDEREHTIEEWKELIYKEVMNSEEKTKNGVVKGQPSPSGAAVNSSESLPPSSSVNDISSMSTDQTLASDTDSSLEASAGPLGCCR

[3] = system: c-Jun phosphorylation; test: LanthaScreen TR-FRET cell assay for c-Jun phosphorylation in HeLa cells; format: cell-based; settings: Homo sapiens; for EC50: Hela cells, TNF-α stimulation, read-out: p-c-Jun EC50 (nM) Hela; for IC50: HeLa cells, rounded values of the text, read-out: IC50 for inhibiting c-Jun phosphorylation in HeLa cells
Method: Phosphorylation was determined by measuring the time resolved FRET (TR-FRET) between a terbium labeled phospho-c-Jun specific antibody and GFP. The cells were plated in white tissue culture treated 384 well plates at a density of 10,000 cell per well in 32 μL assay medium (Opti-MEM®, supplemented with 0.5% charcoal/dextran-treated FBS, 100 U/ml penicillin and 100 μg/ml streptomycin, 0.1 mM nonessential amino acids, 1 mM sodium pyruvate, 25 mM Hepes, pH 7.3, and lacking phenol red). After overnight incubation, cells were pretreated for 90 minutes with compound (at indicated concentration) diluted in 4 μL assay buffer followed by 30 min of stimulation with 5 ng/ml of TNF-α in 4 μL assay buffer (final assay volume was 40 μl). The medium was then removed by aspiration, and the cells were lysed by adding 20 μl of lysis buffer (20 mM Tris-HCl, pH 7.6, 5 mM EDTA, 1% Nonidet P-40 substitute, 5 mM NaF, 150 mM NaCl, and 1:100 protease and phosphatase inhibitor mix, SIGMA P8340 and P2850, respectively). The lysis buffer included 2 nM of the terbium-labeled anti-c-Jun (pSer73) detection antibodies (Life Technologies). After allowing the assay to equilibrate for 60 minutes at room temperature, TR-FRET emission ratios were determined on a BMG Pherastar fluorescence plate reader (BMG Labtech, Cary, N.C.) using the following parameters: excitation at 340 nm; emission at 520 nm and 490 nm; 100 μs lag time; 200 μs integration time; and emission ratio=Em520/Em490. All data were analyzed and plotted using Graphpad Prism 4.
as §1

[4] = system: phosphorylation of p38; test: High-throughput microscopy, phosphorylation of p38; format: cell-based; settings: Homo sapiens, A-375, A375 cells, anisomycin stimulation, read-out: Cellular EC50 pP38
Method: (§2) A375 cells were stimulated with anisomycin (FIGS. 14A and 14C to 14F), IGF-1 (FIG. 14B), IL-6 (FIG. 14G), and TNF-α (FIG. 14H) for sixty minutes. The output of multiple signaling pathways was measured using high throughput microscopy at multiple concentrations of four JNK inhibitors and a control compound specific to each pathway DMSO (FIG. 14A), MK2206 (allosteric Akt inhibitor, Haoyuan Chemexpress Co., Limited. Hirai, et al., 2010) (FIG. 14B), PD0325901 (allosteric Mek inhibitor, Haoyuan Chemexpress Co., Limited. Barrett, et al., 2008) (FIGS. 14C and 14D), SB239063 (ATP-competitive p38 inhibitor, Haoyuan Chemexpress Co., Limited. Underwood et al., 2000) (FIGS. 14E and 14F), KIN001-040 (ATP-competitive JAK1,2,3 inhibitor, Haoyuan Chemexpress Co., Limited. Thompson et al., 2002) (FIG. 14G), and KIN001-208 (IKK inhibitor VIII, Haoyuan Chemexpress Co., Limited., Murata, et al., 2004) (FIG. 14H).
(§3) Cells were plated at 7500 cells/well in 96-well microscopy plates (Corning) in recommended media for 24 hours, and then starved in media lacking serum for 16 hours. Cells were pre-treated for 180 minutes with 10-fold stock solutions of JNK inhibitors and for 10 min with control compounds MK2206, PD0325901, SB239063, KIN040, and KIN208 and treated with 10-fold stock solutions of IGF-1, IL-6, TNF-α (all PeproTech), or anisomycin for 60 minutes. Cells were fixed in 2% paraformaldehyde for 10 min at room temperature and washed with PBS-T (Phosphate Buffered Saline, 0.1% Tween 20). Cells were permeabilized in methanol for 10 min at room temperature, washed with PBS-T, and blocked in Odyssey Blocking Buffer (LI-COR Biosciences) for 1 hour at room temperature. Cells were incubated overnight at 4° C. with antibody specific for Erk1/2(pT202/pY204), Akt(pS473), c-Jun(pS73), pP38(T180/Y182) and pSTAT3(Y705) (Cell Signaling Technology), pRSK1(S380) and pMSK1(S376) (Epitomics), and NF-κB (Santa Cruz Biotechnology) diluted 1:400 in Odyssey Blocking Buffer. Cells were washed three times in PBS-T and incubated with rabbit-specific secondary antibody labeled with Alexa Fluor 647 (Invitrogen) diluted 1:2000 in Odyssey Blocking Buffer. Cells were washed once in PBS-T and once in PBS and incubated in 250 ng/ml Hoechst 33342 (Invitrogen) and 1:1000 Whole Cell Stain (blue; Thermo Scientific) solution. Cells were washed twice with PBS and imaged in an imageWoRx high-throughput microscope (Applied Precision). Data were plotted using DataPflex. […]

[5] = system: phosphorylation of RSK; test: High-throughput microscopy, phosphorylation of RSK; format: cell-based; settings: Homo sapiens, A-375, A375 cells, anisomycin stimulation, read-out: Cellular EC50 pRSK
Method: as §2, §3

[6] = target: JNK1 (Homo sapiens, UniProt P45983); test: Biochemical JNK1 kinase inhibition (Z'-lyte format); settings: Table 2
Sequence of JNK1 (P45983 whole entry): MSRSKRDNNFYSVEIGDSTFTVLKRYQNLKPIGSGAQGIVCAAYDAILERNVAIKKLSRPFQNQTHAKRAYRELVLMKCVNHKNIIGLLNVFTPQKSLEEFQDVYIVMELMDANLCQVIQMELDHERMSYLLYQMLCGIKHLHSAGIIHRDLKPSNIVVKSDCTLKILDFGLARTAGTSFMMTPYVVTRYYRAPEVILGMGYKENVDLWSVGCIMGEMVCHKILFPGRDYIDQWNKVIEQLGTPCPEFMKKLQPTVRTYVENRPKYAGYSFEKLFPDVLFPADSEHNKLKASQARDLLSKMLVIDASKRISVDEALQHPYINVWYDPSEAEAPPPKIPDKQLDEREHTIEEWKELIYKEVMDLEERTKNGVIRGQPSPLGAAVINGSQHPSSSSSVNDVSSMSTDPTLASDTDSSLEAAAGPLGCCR

[7] = system: phosphorylation of Akt; test: High-throughput microscopy, phosphorylation of Akt; format: cell-based; settings: Homo sapiens, A-375, A375 cells, IGF-1 stimulation, read-out: Cellular EC50 pAkt
Method: as §2, §3

[8] = system: phosphorylation of STAT3; test: High-throughput microscopy, phosphorylation of STAT3; format: cell-based; settings: Homo sapiens, A-375, A375 cells, IL-6 stimulation, read-out: Cellular EC50 pSTAT3
Method: as §2, §3

[9] = system: NF-kB nuclear translocation; test: High-throughput microscopy, NF-kB nuclear translocation; format: cell-based; settings: Homo sapiens, A-375, A375 cells, TNF-α stimulation, read-out: Cellular EC50 NF-kB
Method: as §2, §3

[10] = target: JNK2 (Homo sapiens, UniProt P45984); test: Biochemical JNK2 kinase inhibition (Z'-lyte format); settings: Table 2
Sequence of JNK2 (P45984 whole entry): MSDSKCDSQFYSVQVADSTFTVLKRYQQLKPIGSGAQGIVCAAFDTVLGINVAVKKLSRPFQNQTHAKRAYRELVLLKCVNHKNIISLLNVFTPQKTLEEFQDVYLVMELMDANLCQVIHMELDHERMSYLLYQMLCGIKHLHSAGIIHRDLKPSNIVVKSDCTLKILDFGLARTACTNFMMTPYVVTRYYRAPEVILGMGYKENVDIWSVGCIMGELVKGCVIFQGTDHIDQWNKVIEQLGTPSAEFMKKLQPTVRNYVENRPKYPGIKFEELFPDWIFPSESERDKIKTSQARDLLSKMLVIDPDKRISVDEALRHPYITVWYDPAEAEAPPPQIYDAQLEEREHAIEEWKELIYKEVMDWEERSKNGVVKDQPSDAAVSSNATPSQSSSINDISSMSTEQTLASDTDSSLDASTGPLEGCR

[11] = system: phosphorylation of Erk; test: High-throughput microscopy, phosphorylation of Erk; format: cell-based; settings: Homo sapiens, A-375, A375 cells, anisomycin stimulation, read-out: Cellular EC50 pErk
Method: as §2, §3

[12] = system: JNK; test: Binding kinetics (pulse-chase) assay, ATP-biotin labeling of JNK in A375 cells; format: cell-based; settings: 1 μM compound
Method: A375 cells were incubated with inhibitors for the indicated amount of time after which cell lysates were prepared and labeled with ATP-biotin. Biotinylated proteins were pulled down with streptavidin beads and material bound to the beads was eluted and separate by SDS-PAGE followed by Western blot analysis for JNK.
A375 cells (ATCC® CRL-1619™) were pre-treated with 1 μM compound for the indicated amounts of time. Remove the medium and wash 3 times with PBS. Resuspend the cell pellet with 1 mL Lysis Buffer (1% NP-40, 1% CHAPS, 25 mM Tris, 150 mM NaCl, Phosphatase Inhibitor Cocktail, Roche 04906845001, and Protease Inhibitor Cocktail Roche 11836170001). Rotate end-to-end for 30 min at 4° C. Lysates were cleared by centrifugation at 14000 rpm for 15 min in the Eppendorf. The cleared lysates gel filtered into Kinase Buffer (0.1% NP-40, 20 mM HEPES, 150 mM NaCl, Phosphatase Inhibitor Cocktail, and Protease Inhibitor Cocktail) using Bio-Rad 10DG colums. The total protein concentration of the gel-filtered lysate should be around 5-15 mg/ml. […]
In order to evaluate the kinetics with which JNK-IN-5 could covalently modify JNK in cells, a pulse-chase assay was developed . […] Streptavidin affinity chromatography is then used to isolate all biotinylated proteins and JNK protein is detected following SDS-PAGE and Western blotting (FIG. 8). […]

[13] = Table 5, A375, read-out: E50/A375
[14] = A375 cells, anisomycin stimulation, read-out: p-c-Jun EC50 (nM) A375

Row | EC50 [1, 13] | IC50 [2] | EC50 [3] | EC50 [1, 14] | Structure (SMILES) | also measured
1 | 5460 nM |  |  |  | C=CC(=O)Nc1ccc(C(=O)Nc2cccc(Nc3nccc(-c4cccnc4)n3)c2)cc1 [ZG-9] | 
2 |  | 0.5 nM | 104 nM | 117 nM | Cc1ccc(NC(=O)/C=C/CN(C)C)cc1C(=O)Nc1ccc(Nc2nccc(-c3cccnc3)n2)cc1 [JNK-IN-9] | 
3 |  | 0.5 nM | 48 nM | 8.6 nM | CN(C)C/C=C/C(=O)Nc1cccc(C(=O)Nc2ccc(Nc3nccc(-c4c(-c5ccccc5)nn5ccccc45)n3)cc2)c1 [JNK-IN-11] | EC50 [4]: 15 nM; EC50 [5]: 20 nM; IC50 [6]: 1.34 nM; EC50 [7]: > 10000 nM; EC50 [8]: > 10000 nM; IC50 [3]: ~30 nM; EC50 [9]: > 10000 nM; EC50 ([1]; A375 cells, anisomycin stimulation, high-throughput microscopy, Table 4, read-out: Cellular EC50 pc-Jun): < 10 nM; IC50 ([1]; A375 cells): ~10 nM; IC50 [10]: 0.5 nM; EC50 [11]: 19 nM
4 |  | 0.5 nM | 173 nM | 141 nM | Cc1ccc(C(=O)Nc2ccc(Nc3nccc(-c4cccnc4)n3)cc2)cc1NC(=O)/C=C/CN(C)C [JNK-IN-10] | 
5 | 2400 nM |  |  |  | CN(C)C/C=C/C(=O)Nc1ccc(C(=O)Nc2cccc(Nc3nccc(-c4cccnc4)n3)c2)cc1 [ZG-10] | 
6 |  |  | 7450 nM | 1980 nM | Oc1c2ccccc2c2c3c(cccc13)N=N2 [SP-600125, reference compound] | 
7 | 32 nM | 0.96 nM | 118 nM | 32 nM | C=CC(=O)Nc1cccc(C(=O)Nc2ccc(Nc3nccc(-c4cccnc4)n3)cc2)c1 [JNK-IN-5] | IC50 [6]: 2.11 nM; IC50 [3]: ~100 nM; incubation time to fully protect JNK from labeling by ATP-biotin [12]: approximately three; IC50 ([1]; A375 cells): ~30 nM; IC50 [10]: 1.93 nM
